# Experiments:
# Assay in all cases: scanMAX Kinase assay panel
# Assay type in all cases: binding
# Settings in all cases: read-out: % control
# ABL2 = ABL2 (Homo sapiens (Human), UniProt P42684)
# How it was run: (§1)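 scanMAX kinase panel screen. Normalisation: (cpd − pos ctrl)/(neg ctrl − pos ctrl) × 100. Neg ctrl is DMSO (100%); pos ctrl gives 0%.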
# YES = YES (Homo sapiens (Human), UniProt P07947)
# How it was run: as §1
# PAK4 = PAK4 (Homo sapiens (Human), UniProt O96013)
# How it was run: as §1
# [1] = molecular target: ABL1(F317I)-nonphosphorylated (Homo sapiens (Human), UniProt P00519, F317I)
# How it was run: as §1
# PIK4CB = PIK4CB (Homo sapiens (Human), UniProt Q9UBF8)
# How it was run: as §1
# STK36 = STK36 (Homo sapiens (Human), UniProt Q9NRP7)
# How it was run: as §1
# TESK1 = TESK1 (Homo sapiens (Human), UniProt Q15569)
# How it was run: as §1
# [2] = molecular target: ABL1(F317L)-phosphorylated (Homo sapiens (Human), UniProt P00519, F317L)
# How it was run: as §1
# FGFR4 = FGFR4 (Homo sapiens (Human), UniProt P22455)
# How it was run: as §1
# GRK3 = GRK3 (Homo sapiens (Human), UniProt P35626)
# Sequence of GRK3 (P35626 whole entry): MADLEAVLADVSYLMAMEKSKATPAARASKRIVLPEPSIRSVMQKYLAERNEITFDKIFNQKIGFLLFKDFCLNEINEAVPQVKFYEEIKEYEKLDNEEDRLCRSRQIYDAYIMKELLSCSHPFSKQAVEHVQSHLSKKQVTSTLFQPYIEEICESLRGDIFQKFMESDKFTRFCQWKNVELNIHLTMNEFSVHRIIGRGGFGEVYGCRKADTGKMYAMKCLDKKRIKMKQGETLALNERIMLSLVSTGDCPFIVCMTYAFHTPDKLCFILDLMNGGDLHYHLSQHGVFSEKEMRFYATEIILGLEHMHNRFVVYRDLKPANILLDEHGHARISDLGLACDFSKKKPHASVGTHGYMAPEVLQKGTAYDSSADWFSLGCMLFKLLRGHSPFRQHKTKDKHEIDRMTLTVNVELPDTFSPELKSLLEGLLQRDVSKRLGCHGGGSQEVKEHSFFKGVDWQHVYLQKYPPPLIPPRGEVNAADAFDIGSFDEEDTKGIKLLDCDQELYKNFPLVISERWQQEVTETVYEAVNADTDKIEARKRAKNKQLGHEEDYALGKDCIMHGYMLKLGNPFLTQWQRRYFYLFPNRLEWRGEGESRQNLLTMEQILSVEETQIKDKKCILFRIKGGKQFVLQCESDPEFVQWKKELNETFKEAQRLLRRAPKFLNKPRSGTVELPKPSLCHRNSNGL
# How it was run: as §1
# DRAK1 = DRAK1 (Homo sapiens (Human), UniProt Q9UEE5)
# Sequence of DRAK1 (Q9UEE5 whole entry): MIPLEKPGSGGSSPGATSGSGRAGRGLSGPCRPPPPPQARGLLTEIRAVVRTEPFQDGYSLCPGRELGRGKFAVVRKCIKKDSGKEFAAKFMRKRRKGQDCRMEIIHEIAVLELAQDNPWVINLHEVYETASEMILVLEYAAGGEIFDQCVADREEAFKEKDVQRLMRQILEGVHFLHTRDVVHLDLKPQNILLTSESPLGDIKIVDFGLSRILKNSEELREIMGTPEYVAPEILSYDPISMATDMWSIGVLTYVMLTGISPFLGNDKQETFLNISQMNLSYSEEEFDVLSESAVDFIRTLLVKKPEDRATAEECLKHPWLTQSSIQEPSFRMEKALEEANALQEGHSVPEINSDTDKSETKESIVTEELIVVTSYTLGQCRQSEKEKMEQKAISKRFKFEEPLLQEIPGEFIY
# How it was run: as §1
# EPHA1 = EPHA1 (Homo sapiens (Human), UniProt P21709)
# How it was run: as §1
# EPHA5 = EPHA5 (Homo sapiens (Human), UniProt P54756)
# How it was run: as §1
# BRSK1 = BRSK1 (Homo sapiens (Human), UniProt Q8TDC3)
# How it was run: as §1
# CAMK4 = CAMK4 (Homo sapiens (Human), UniProt Q16566)
# How it was run: as §1
# CAMK2G = CAMK2G (Homo sapiens (Human), UniProt Q13555)
# Sequence of CAMK2G (Q13555 whole entry): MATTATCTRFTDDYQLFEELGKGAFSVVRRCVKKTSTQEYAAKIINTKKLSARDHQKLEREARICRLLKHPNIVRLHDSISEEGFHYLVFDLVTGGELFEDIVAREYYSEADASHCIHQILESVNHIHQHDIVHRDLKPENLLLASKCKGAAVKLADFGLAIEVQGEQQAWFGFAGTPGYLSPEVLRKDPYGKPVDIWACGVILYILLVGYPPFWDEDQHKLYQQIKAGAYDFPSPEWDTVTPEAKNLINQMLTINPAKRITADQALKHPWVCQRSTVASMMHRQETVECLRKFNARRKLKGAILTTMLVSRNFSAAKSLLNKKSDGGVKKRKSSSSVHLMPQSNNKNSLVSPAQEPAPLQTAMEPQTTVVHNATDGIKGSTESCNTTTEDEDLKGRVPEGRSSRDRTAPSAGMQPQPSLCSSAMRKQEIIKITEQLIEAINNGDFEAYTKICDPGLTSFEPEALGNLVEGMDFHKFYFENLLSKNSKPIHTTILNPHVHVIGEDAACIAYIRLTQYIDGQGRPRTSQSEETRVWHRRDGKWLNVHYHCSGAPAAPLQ
# How it was run: as §1
# PRKCD = PRKCD (Homo sapiens (Human), UniProt Q05655)
# How it was run: as §1
# SBK1 = SBK1 (Homo sapiens (Human), UniProt Q52WX2)
# How it was run: as §1
# MEK6 = MEK6 (Homo sapiens (Human), UniProt P52564)
# How it was run: as §1
# TAOK2 = TAOK2 (Homo sapiens (Human), UniProt Q9UL54)
# How it was run: as §1
# [3] = molecular target: TYK2(JH1domain-catalytic) (Homo sapiens (Human), UniProt P29597)
# How it was run: as §1
# MAPKAPK2 = MAPKAPK2 (Homo sapiens (Human), UniProt P49137)
# How it was run: as §1
# EGFR(L747-T751del, Sins) = EGFR(L747-T751del, Sins) (Homo sapiens (Human), UniProt P00533, DEL747-751/INS746S)
# How it was run: as §1
# PIK3CA(Q546K) = PIK3CA(Q546K) (Homo sapiens (Human), UniProt P42336, Q546K)
# How it was run: as §1
# EGFR(G719C) = EGFR(G719C) (Homo sapiens (Human), UniProt P00533, G719C)
# Sequence of EGFR(G719C) (P00533 25-1210 G719C): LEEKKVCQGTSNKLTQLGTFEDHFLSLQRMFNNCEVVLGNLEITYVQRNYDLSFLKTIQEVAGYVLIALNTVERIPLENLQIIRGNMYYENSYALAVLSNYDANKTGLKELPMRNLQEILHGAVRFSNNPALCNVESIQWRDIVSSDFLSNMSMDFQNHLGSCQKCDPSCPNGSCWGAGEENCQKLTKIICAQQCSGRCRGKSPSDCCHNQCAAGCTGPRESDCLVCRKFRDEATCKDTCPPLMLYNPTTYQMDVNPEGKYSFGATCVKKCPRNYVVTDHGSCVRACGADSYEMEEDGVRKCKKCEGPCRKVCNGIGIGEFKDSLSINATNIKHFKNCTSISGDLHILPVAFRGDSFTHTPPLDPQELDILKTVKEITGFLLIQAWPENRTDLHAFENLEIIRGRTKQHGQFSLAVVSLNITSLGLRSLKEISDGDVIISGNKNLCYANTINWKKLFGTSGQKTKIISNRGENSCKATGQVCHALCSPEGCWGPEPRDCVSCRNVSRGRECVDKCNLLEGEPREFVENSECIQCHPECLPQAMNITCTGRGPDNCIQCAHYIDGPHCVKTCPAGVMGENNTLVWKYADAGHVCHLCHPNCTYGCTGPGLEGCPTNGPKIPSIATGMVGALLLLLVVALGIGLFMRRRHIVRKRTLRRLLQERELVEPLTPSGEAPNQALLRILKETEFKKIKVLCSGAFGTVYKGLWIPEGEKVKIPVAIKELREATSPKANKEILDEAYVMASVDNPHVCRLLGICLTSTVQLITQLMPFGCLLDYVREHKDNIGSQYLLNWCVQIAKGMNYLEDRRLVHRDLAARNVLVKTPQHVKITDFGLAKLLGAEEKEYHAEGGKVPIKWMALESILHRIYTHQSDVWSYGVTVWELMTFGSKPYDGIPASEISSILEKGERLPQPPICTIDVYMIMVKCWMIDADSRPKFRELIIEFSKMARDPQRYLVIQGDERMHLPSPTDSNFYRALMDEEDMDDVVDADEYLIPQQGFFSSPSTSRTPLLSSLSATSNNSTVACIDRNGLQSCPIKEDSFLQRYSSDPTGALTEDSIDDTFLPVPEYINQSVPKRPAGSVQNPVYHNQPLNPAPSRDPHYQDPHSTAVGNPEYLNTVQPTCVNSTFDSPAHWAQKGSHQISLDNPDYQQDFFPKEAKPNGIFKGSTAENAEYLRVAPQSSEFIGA
# How it was run: as §1
# HCK = HCK (Homo sapiens (Human), UniProt P08631)
# How it was run: as §1
# PAK7 = PAK7 (Homo sapiens (Human), UniProt Q9P286)
# Sequence of PAK7 (Q9P286 whole entry): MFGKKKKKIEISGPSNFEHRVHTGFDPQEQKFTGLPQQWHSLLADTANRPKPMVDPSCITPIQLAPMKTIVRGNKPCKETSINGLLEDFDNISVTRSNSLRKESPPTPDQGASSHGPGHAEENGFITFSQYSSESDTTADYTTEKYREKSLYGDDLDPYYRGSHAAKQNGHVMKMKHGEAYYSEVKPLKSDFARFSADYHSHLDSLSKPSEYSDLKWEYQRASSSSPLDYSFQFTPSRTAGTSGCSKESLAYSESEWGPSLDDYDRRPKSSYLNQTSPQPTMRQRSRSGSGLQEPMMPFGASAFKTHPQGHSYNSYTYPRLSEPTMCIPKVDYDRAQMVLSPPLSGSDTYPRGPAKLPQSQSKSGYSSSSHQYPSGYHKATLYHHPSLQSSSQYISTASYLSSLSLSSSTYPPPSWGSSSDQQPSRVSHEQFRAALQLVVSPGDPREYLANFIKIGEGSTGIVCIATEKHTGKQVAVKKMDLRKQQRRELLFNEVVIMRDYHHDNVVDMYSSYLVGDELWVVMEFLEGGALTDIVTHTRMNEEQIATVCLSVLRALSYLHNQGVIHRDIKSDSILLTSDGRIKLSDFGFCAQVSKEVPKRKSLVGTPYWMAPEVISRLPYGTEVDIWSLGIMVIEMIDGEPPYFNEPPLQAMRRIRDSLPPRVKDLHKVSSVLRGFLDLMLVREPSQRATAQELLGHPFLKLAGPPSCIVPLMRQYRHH
# How it was run: as §1
# CSNK1A1L = CSNK1A1L (Homo sapiens (Human), UniProt Q8N752)
# How it was run: as §1
# IGF1R = IGF1R (Homo sapiens (Human), UniProt P08069)
# How it was run: as §1
# JNK3 = JNK3 (Homo sapiens (Human), UniProt P53779)
# How it was run: as §1
# PLK4 = PLK4 (Homo sapiens (Human), UniProt O00444)
# Sequence of PLK4 (O00444 whole entry): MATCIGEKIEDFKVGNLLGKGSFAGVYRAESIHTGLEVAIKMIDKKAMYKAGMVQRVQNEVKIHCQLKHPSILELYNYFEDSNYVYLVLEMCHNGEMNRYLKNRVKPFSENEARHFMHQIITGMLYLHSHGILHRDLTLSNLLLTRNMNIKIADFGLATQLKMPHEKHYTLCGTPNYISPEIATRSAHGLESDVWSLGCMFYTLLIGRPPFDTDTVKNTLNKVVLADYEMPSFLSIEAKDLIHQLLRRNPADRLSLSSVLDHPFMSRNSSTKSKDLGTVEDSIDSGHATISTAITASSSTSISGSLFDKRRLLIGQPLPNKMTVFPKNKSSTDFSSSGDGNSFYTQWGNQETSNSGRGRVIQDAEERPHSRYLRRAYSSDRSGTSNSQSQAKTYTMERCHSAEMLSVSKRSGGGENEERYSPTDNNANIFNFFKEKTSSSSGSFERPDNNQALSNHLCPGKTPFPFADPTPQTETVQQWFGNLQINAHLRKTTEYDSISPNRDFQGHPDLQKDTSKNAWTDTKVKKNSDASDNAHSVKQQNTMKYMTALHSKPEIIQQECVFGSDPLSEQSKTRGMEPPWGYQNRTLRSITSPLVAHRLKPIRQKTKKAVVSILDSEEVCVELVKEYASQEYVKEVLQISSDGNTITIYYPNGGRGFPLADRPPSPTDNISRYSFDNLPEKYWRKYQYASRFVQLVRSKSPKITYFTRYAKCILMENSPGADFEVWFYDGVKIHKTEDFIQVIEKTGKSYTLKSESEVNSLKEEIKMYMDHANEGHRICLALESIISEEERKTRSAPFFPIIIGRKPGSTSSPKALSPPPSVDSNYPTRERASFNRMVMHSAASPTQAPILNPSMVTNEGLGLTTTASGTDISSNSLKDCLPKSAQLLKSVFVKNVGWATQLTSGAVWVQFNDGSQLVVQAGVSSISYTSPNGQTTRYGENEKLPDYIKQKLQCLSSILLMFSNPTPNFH
# How it was run: as §1
# SgK110 = SgK110 (Homo sapiens (Human), UniProt P0C264)
# How it was run: as §1
# TRKB = TRKB (Homo sapiens (Human), UniProt Q16620)
# How it was run: as §1
# RIPK2 = RIPK2 (Homo sapiens (Human), UniProt O43353)
# How it was run: as §1
# CHEK1 = CHEK1 (Homo sapiens (Human), UniProt O14757)
# How it was run: as §1
# NEK7 = NEK7 (Homo sapiens (Human), UniProt Q8TDX7)
# How it was run: as §1
# FYN = FYN (Homo sapiens (Human), UniProt P06241)
# How it was run: as §1
# STK33 = STK33 (Homo sapiens (Human), UniProt Q9BYT3)
# How it was run: as §1
# SRPK2 = SRPK2 (Homo sapiens (Human), UniProt P78362)
# How it was run: as §1
# Sequence of YES (P07947 whole entry): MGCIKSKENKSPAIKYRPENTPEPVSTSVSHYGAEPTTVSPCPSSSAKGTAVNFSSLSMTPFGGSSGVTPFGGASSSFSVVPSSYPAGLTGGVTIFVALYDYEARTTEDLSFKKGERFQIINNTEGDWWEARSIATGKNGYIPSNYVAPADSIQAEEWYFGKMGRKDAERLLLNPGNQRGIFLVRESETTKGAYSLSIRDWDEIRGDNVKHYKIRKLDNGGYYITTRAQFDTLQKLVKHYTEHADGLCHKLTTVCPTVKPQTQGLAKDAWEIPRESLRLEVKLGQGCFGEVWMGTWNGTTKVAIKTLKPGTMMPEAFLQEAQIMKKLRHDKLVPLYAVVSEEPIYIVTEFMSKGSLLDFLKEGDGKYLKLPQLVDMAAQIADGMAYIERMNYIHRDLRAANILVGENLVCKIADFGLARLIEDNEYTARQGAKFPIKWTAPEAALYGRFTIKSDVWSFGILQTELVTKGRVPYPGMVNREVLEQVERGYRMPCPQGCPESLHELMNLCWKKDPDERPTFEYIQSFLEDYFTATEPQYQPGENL
Compound,remaining binding at 1 µM (ABL2) [%],remaining binding at 1 µM (YES) [%],remaining binding at 1 µM (PAK4) [%],remaining binding at 1 µM [1] [%],remaining binding at 1 µM (PIK4CB) [%],remaining binding at 1 µM (STK36) [%],remaining binding at 1 µM (TESK1) [%],remaining binding at 1 µM [2] [%],remaining binding at 1 µM (FGFR4) [%],remaining binding at 1 µM (GRK3) [%],remaining binding at 1 µM (DRAK1) [%],remaining binding at 1 µM (EPHA1) [%],remaining binding at 1 µM (EPHA5) [%],remaining binding at 1 µM (BRSK1) [%],remaining binding at 1 µM (CAMK4) [%],remaining binding at 1 µM (CAMK2G) [%],remaining binding at 1 µM (PRKCD) [%],remaining binding at 1 µM (SBK1) [%],remaining binding at 1 µM (MEK6) [%],remaining binding at 1 µM (TAOK2) [%],also measured
"CCNc1cc(Nc2ccc(C(=O)N3CCC(N4CCOCC4)CC3)cc2OC)nc2[nH]cc(C#N)c12 [Example 18, 4-(ethylamino)-6-((2-methoxy-4-(4-morpholinopiperidine-1-carbonyl)phenyl)amino)-1H-pyrrolo[2,3-b]pyridine-3-carbonitrile]",93,90,88,89,80,98,90,100,80,58,56,91,99,94,76,77,75,86,53,77,"remaining binding at 1 µM [3]: 59%; remaining binding at 1 µM (MAPKAPK2): 21%; remaining binding at 1 µM (EGFR(L747-T751del, Sins)): 100%; remaining binding at 1 µM (PIK3CA(Q546K)): 100%; remaining binding at 1 µM (EGFR(G719C)): 95%; remaining binding at 1 µM (HCK): 85%; remaining binding at 1 µM (PAK7): 80%; remaining binding at 1 µM (CSNK1A1L): 3.1%; remaining binding at 1 µM (IGF1R): 74%; remaining binding at 1 µM (JNK3): 0%; remaining binding at 1 µM (PLK4): 40%; remaining binding at 1 µM (SgK110): 100%; remaining binding at 1 µM (TRKB): 100%; remaining binding at 1 µM (RIPK2): 86%; remaining binding at 1 µM (CHEK1): 100%; remaining binding at 1 µM (NEK7): 89%; remaining binding at 1 µM (FYN): 78%; remaining binding at 1 µM (STK33): 17%; remaining binding at 1 µM (SRPK2): 100%"
"CCNc1cc(Nc2ccc(C(=O)N3CCC(N4CCOCC4)CC3)cc2OC)nc2[nH]cc(C(F)(F)F)c12 [Example 57, (4-((4-(ethylamino)-3-(trifluoromethyl)-1H-pyrrolo[2,3-b]pyridin-6-yl)amino)-3-methoxyphenyl) (4-morpholinopiperidin-1-yl)methanone]",98,83,93,96,100,98,79,100,92,100,67,78,85,94,88,72,87,90,72,85,"remaining binding at 1 µM [3]: 100%; remaining binding at 1 µM (MAPKAPK2): 51%; remaining binding at 1 µM (EGFR(L747-T751del, Sins)): 97%; remaining binding at 1 µM (PIK3CA(Q546K)): 100%; remaining binding at 1 µM (EGFR(G719C)): 91%; remaining binding at 1 µM (HCK): 88%; remaining binding at 1 µM (PAK7): 100%; remaining binding at 1 µM (CSNK1A1L): 71%; remaining binding at 1 µM (IGF1R): 71%; remaining binding at 1 µM (JNK3): 52%; remaining binding at 1 µM (PLK4): 47%; remaining binding at 1 µM (SgK110): 96%; remaining binding at 1 µM (TRKB): 100%; remaining binding at 1 µM (RIPK2): 94%; remaining binding at 1 µM (CHEK1): 91%; remaining binding at 1 µM (NEK7): 85%; remaining binding at 1 µM (FYN): 87%; remaining binding at 1 µM (STK33): 16%; remaining binding at 1 µM (SRPK2): 100%"

# Source: patent US11117892B2, “Pyrrolo-pyridine derivative compound, method for preparing same, and pharmaceutical composition containing same as active ingredient for prevention or treatment of protein kinase-related diseases” (DAEGU-GYEONGBUK MEDICAL INNOVATION FOUNDATION, priority 2017, dated 2021)
